The test system of assay [1] is rice seeds (variety: Koshihikari). As to the kind of experiment: Test on acceleration of rice root growth and effect of growing vigourous seedlings. It is filed as in vivo. Conditions: for Seminal Root Length: paper filter, 25° C. How it is done: A paper filter was spread in a plastic cup and impregnated with 10 ml of each of the chemical solutions prepared in Example 1 or Comparative Example 1. In non-treatment, water was used in place of the chemical solutions. In treatment plots, 1 replication was provided for each concentration; in the non-treatment plots, 2 replications were provided. Ten rice seeds (variety: Koshihikari) were sown on each plot of the paper filter and cultivated in a growth chamber at 25° C., and the length of roots was measured after 5 and 7 days. The average of measured values excluding the maximum and minimum values was calculated. The ratio (%) of the average value in each treatment plot to the average value in the non-treatment plots was calculated.

Assay [2] concerns cucumber (Variety:Sagamihanjiro-fushinari). Description: Test on acceleration of growth of aboveground/underground part of cucumber and effect of growing vigourous seedlings. It is filed as in vivo. Conditions: after 7 days, dilution 708, active ingredient 250 ppm. How it is done:
Seedling-raising culture soil for gardening was placed in a 12 -cm-by-20 -cm plastic pot 10 cm in depth, and 5 seeds of cucumber (Variety:Sagamihanjiro-fushinari) were sown in the soil. Thereinto was uniformly irrigated 500 ml of each chemical solution prepared in Example 1 or Comparative Example 1. Water was used in place of each chemical solution in the non-treatment plots. Each plot has 3 replications. The above-ground and underground parts of the seedlings germinated and grown after 7 days were measured for length. The ratio (%) of the average value in each treatment plot to the average value in the non-treatment plot was calculated.

[3] abbreviates: After 5 Days, dilution 708, active ingredient 250 ppm.
Where [4] appears, read: After 5 Days, dilution 2832, active ingredient 62.5 ppm.
Where [5] appears, read: After 5 Days, dilution 11328, active ingredient 15.6 ppm.
The mark [6] stands for this setting: After 7 Days, dilution 2832, active ingredient 62.5 ppm.
The mark [7] stands for this setting: After 7 Days, dilution 11328, active ingredient 15.6 ppm.

Turning to `Cc1c(Br)c2ccc(F)cc2n1S(=O)(=O)c1ncn(S(=O)(=O)N(C)C)n1` [Amisulbrom, 3-(3-bromo-6-fluoro-2-methylindol-1-ylsulfonyl)-N,N-dimethyl-1H-1,2,4-triazole-1-sulfonamide], the “Seminal Root Length To Non-treatment” value in assay [1] (setting [3]) was 120%; in assay [1] (setting [4]), 139%; in assay [1] (setting [5]), 129%; in assay [1] (setting [6]) it was 176%; in assay [1] (setting [7]), 154%; in assay [1] (after 7 days, dilution 708, active ingredient 250 ppm), 127%. Also, the “Seminal Root Length” value came out at 2.46 cm in assay [1] (setting [3]); 2.85 cm in assay [1] (setting [4]); 2.65 cm in assay [1] (setting [5]); 2.91 cm in assay [1] (After 7 Days, dilution 708, active ingredient 250 ppm); 4.04 cm in assay [1] (setting [6]); 3.53 cm in assay [1] (setting [7]). Also, in assay [2], the “Above-ground Part Length To Non-treatment” value is recorded as 108%. Besides, the “Under-ground Part Length To Non-treatment” value in assay [2] is listed as 117%. Besides, the “Above-ground Part Length” value in assay [2] (500 ml irrigated into soil) worked out at 2.2 cm. Further, the “Under-ground Part Length” value in assay [2] (500 ml irrigated into soil) came to 4.3 cm.

The values above are taken from patent publication US20160081338A1, “PLANT GROWTH ACCELERATOR” (Nippon Soda Co., Ltd., priority 2012, published 2016).
